In assay [1] the test system is tropoelastin. The experiment in a line: Tropoelastin immunostaining on human skin explants after IR-A irradiation. The class given is cell-based. The note with it: papillary dermis. The procedure: (§1) The product tested is a solution of 2% DHA in water. This was done to avoid formulation effects of auxiliary ingredients.
(§2) Human skin explants were prepared on an abdominoplasty coming from a person (Fitzpatrick skin phototype II-Ill). The explants were kept in survival in BEM culture medium (BIO-EC's Explants Medium) at 37° C. in a humid, 5%-CO2 atmosphere.
(§3) On day 0 (D0), day 3 (D3) and day 4 (D4; 3 hours before IR irradiation), day 5 (D5) and day 6 (D6), the product was applied topically followed by 10 minutes of drying. […] The culture medium was half renewed (1 ml/well) on day 3 and day 5. Irradiation of the explants were done using an infrared lamp (Dr FISCHER 1000 W, 235V, 2500K, 760-3000 nm), for 5040 s (720 J/cm^2). Water filter and IR760 filter were also used to have the following IR range of 700 nm to 1150 nm. The unirradiated batches were kept in HBSS (Hank's Balanced Saline Solution) in the dark. At the end of the irradiation, all the explants were put back in 2 ml of fresh BEM culture medium.
(§4) The explants temperature was measured before and after IR-A irradiation. To avoid temperature-driven side-effects, the explants temperature was maintained at 37° C. (max. 39° C.) by specially adapted refreshing system.
The nuclei were counterstained by propidium iodide.
The immunostaining was assessed by microscopical observation.

Assay [2] concerns MMP1. In words: MMP1 immunostaining on human skin explants after IR-A irradiation. In kind it is cell-based. The procedure:
as §1, §2, §3, §4
The immunostaining was performed using an automated slide processing system (Autostainer, Dako) and assessed by microscopical observation.

As for `O=C(CO)CO` [DHA, 1,3-dihydroxy-2-propanone], the “protection of the explants after irradiation to IR-A (tropoelastin)” value in assay [1] (day 7) was “excellent protection”. Also, the “Tropoelastin levels after IR-A irradiation and DHA treatment versus blank untreated explant” value in assay [1] (day 7, statistically not different (p>0.1)) was “comparable to those of blank untreated explant”. The “MMP-1 decrease versus irradiated blank, epidermis” value in assay [2] (epidermis, IR-A irradiated, day 5, p<0.01) was determined as 65%. The “MMP1 in the epidermis (% surface)” value in assay [2] (living epidermis, IR-A irradiated explant + product applied topically, day 5) is 8.4 % surface.

The record behind these values is patent publication US20210077370A1, “Use of compositions comprising dihydroxyacetone for the protection of skin or hair against infrared irradiation” (Merck Patent GmbH, priority 2019, published 2021).
